test: Displacement of Eu-DTPA labeled ASOR from rat primary hepatocytes Asialoglycoprotein receptor after 20 mins by fluorometric analysis; assay type: cell-based; conditions: hepatocyte

IC50 [nM] | SMILES
> 1000 | NCCCCC(C(=O)NCCCCCCOC1O[C@H](CO)[C@@H](O[C@@H]2O[C@H](CO)[C@H](O)[C@H](O)[C@H]2O)[C@H](O)[C@H]1O)N(CC(=O)NCCCCCCOC1O[C@H](CO)[C@@H](O[C@@H]2O[C@H](CO)[C@H](O)[C@H](O)[C@H]2O)[C@H](O)[C@H]1O)CC(=O)NCCCCCCOC1O[C@H](CO)[C@@H](O[C@@H]2O[C@H](CO)[C@H](O)[C@H](O)[C@H]2O)[C@H](O)[C@H]1O (some centres undefined)
20 | CC(=O)NC1C(OCCCCCCNC(=O)CNC(=O)C[C@H](NC(=O)[C@H](CC(=O)NCC(=O)NCCCCCCOC2O[C@@H](CO)[C@@H](O)[C@@H](O)C2NC(C)=O)NC(=O)[C@@H](N)Cc2ccc(O)cc2)C(=O)NCC(=O)NCCCCCCOC2O[C@@H](CO)[C@@H](O)[C@@H](O)C2NC(C)=O)O[C@@H](CO)[C@@H](O)[C@H]1O (single isomer, unassigned)
12 | CC(=O)N[C@@H]1C(OCCCCCCNC(=O)C(CCCCNC(=O)OCc2ccccc2)N(CC(=O)NCCCCCCOC2O[C@H](CO)[C@H](O)[C@H](O)[C@H]2NC(C)=O)CC(=O)NCCCCCCOC2O[C@H](CO)[C@H](O)[C@H](O)[C@H]2NC(C)=O)O[C@@H](CO)[C@@H](O)[C@H]1O (stereo in doubt)

SMILES | IC50 [nM]
CC(=O)N[C@H]1C(OCCCCCCNC(=O)CNC(=O)CN(CC(=O)NCC(=O)NCCCCCCOC2O[C@H](CO)[C@H](O)[C@H](O)[C@H]2NC(C)=O)C(CCCCNC(=O)OCc2ccccc2)C(=O)NCC(=O)NCCCCCCOC2O[C@H](CO)[C@H](O)[C@H](O)[C@H]2NC(C)=O)O[C@H](CO)[C@H](O)[C@@H]1O (stereo in doubt) | 1

— ChEMBL document CHEMBL1773011, “New and more efficient multivalent glyco-ligands for asialoglycoprotein receptor of mammalian hepatocytes” (Bioorg Med Chem, 2011)
